Reference: patent US20050244936A1, “Hydantoin-racemase” (DEGUSSA AG, priority 1999, published 2005)

Assays:
[1] = system: HyuA; assay: Substrate specificity of HyuA: racemization of 5-substituted hydantoins by ORD polarimetry; assay type: biochemical, Arthrobacter aurescens DSM 3747; settings: substrate conc. 0.9 mM; 100% racemase activity corresponds to 313 μ/mg by standard assay
Procedure: Racemization of the 5-substituted hydantoins BH, IMH and MTEH by HyuA was examined (Tab. 2).
Enzyme assays. Racemization of L-BH was measured by ORD-polarimerty (Model 341, Perkin Elmer Bodenseewerk, Überlingen, Germany) at a wavelength of 295 nm in the standard assay for racemase enzyme activity. 3 MM L-BH was dissolved in 0.1 M Tris, pH 3 at 45° C. in an ultrasonic waterbath, cooled to room temperature and the pH adjusted to pH 8.5 with 3 M NaOH. To 1 ml substrate solution 0.1 ml enzyme, diluted in 0.1 M Tris, pH 8.5, was added and the change in optical rotation determined at 37° C. by polarimetry (Teves et al., Fresenius' J. Anal. Chem. 1999, 363, 738-743). The racemization of MTEH and IMH by. HyuA was determined at substrate concentrations of 0.9 mM and recorded by ORD at 253 nm and 334 nm. The specific activities were calculated from initial reaction rates which were determined according to Teves et al. (1999). For determination of enzyme activity by HPLC, 1 mM L-IMH was dissolved as described above. The mixture containing 900 μl enzyme solution was incubated 5 min at 37° C. The reaction was stopped by addition of 400 μl 14% trichloroacetic acid and centrifugation in an Eppendorf centrifuge at full speed. 100 μl of the sample were diluted with 0.9 ml 0.1 M TrisHCl, pH 8.5, and D-IMH and L-IMH in the supernatant were separated by HPLC (Thermoseparation Products, Darmstadt, Germany) by injection of 20 μl sample into a Chiralpak WH-column (0.46×25 cm; Daicel Chemicals Industris LTD, Griesheim, Germany). The column was equilibrated with 0.25 mM CuSO4, pH 5.5. The flow rate was 1 ml/min at 50° C. and IMH detected at 254 nm. The chemical racemization of the substrate was taken into account. Racemization of […] substrate per minute was defined as one unit enzyme.

[2] = room temperature, pH 8.5, 20 hour; cited from earlier work
[3] = system: racemase HyuA; assay: Initial velocities at different concentrations of L-MTEH (kinetic plot); assay type: biochemical, Arthrobacter aurescens DSM 3747; settings: FIG. 6
Procedure: The KM values of IMH and BH could not be determined due to the limited solubility of the substrates. Instead the initial velocities at different concentrations of L-MTEH were measured. […] Even at low substrate concentrations (>5 mM) inhibition is observed.
Enzyme assays. Racemization of L-BH was measured by ORD-polarimerty (Model 341, Perkin Elmer Bodenseewerk, Überlingen, Germany) at a wavelength of 295 nm in the standard assay for racemase enzyme activity. 3 MM L-BH was dissolved in 0.1 M Tris, pH 3 at 45° C. in an ultrasonic waterbath, cooled to room temperature and the pH adjusted to pH 8.5 with 3 M NaOH. To 1 ml substrate solution 0.1 ml enzyme, diluted in 0.1 M Tris, pH 8.5, was added and the change in optical rotation determined at 37° C. by polarimetry (Teves et al., Fresenius' J. Anal. Chem. 1999, 363, 738-743). The racemization of MTEH and IMH by. HyuA was determined at substrate concentrations of 0.9 mM and recorded by ORD at 253 nm and 334 nm. The specific activities were calculated from initial reaction rates which were determined according to Teves et al. (1999). For determination of enzyme activity by HPLC, 1 mM L-IMH was dissolved as described above. The mixture containing 900 μl enzyme solution was incubated 5 min at 37° C. […] The flow rate was 1 ml/min at 50° C. and IMH detected at 254 nm. […]

Row | SMILES | Relative Activity [1] [%] | fraction racemized to D-IMH (chemical racemization) [2] | substrate concentration at which inhibition of the racemase is observed [3] [mM]
1 | O=C1NC(=O)[C@@H](Cc2ccccc2)N1 [D-BH, D-Benzylhydantoin] | 95 | – | –
2 | O=C1NC(=O)[C@@H](Cc2c[nH]c3ccccc23)N1 [D-IMH] | 12 | – | –
3 | CSCCC1NC(=O)NC1=O [D-MTEH] | 8 | – | –
4 | O=C1NC(=O)[C@H](Cc2c[nH]c3ccccc23)N1 [L-IMH] | 13 | about 10% | –
5 | CSCCC1NC(=O)NC1=O [L-MTEH] | 7 | – | > 5
